What was measured:
APTK organoids = APTK organoids incubated with UA, flow cytometry; assay type: cell-based, murine
Description: Oral UA confers anti-tumor effects in murine colorectal cancer in a T-cell dependent manner. (FIG. 1A) Schematic representation of AOM model and different UA containing diets. (FIG. 1B) Representative images of swiss-roll sections from AOM-induced colon tumors. Scale bars are 2 mm (upper row) and 300 µm (lower row), respectively. (FIG. 1C) Tumor incidence of AOM-induced tumors receiving different UA-containing diets; n=4/5/5. Data are mean ±SD, depicting one of two independent experiments. *p < 0.05 by two-sided t-test. (FIG. 1D) Average lesion size of AOM-induced tumors receiving different UA-containing diets; n=4/5/5. Data are mean ±SD, depicting one of two independent experiments. *p < 0.05 by two-sided t-test. (FIG. 1E) Relative number of CD45^+CD3^+ T cells in colons of AOM-treated mice at week 24 (n>7, pooled from two independent experiments). Data are mean ± SD, **p < 0.01 by two-sided t-test. (FIG. 1F) Organoid treatment scheme. APTK-organoids were incubated in the presence of UA or DMSO for the indicated time points, prior to flow cytometric analysis. (FIG. 1G) Quantification of lysosome formation as assessed by lysotracker MFI via flow cytometry after 24 h incubation at the presence of various UA concentrations (n=5/4/4). Depicts one out of two indepdent experiments. Data are mean ± SD, *p < 0.05; **p < 0.01 as established via two-sided t-test. (FIG. 1H) Mitotracker signal of APTK organoids incubated for 24 h at the presence of UA in vitro (n=4/4/4) and antigen presentation via MHC-I molecules (I) after 48 h of treatment (n=4/4/4). Results from one out of two independent experiments are shown. Data are mean ± SD, statistical analysis was performed via two-sided t-test, *p < 0.05; **p < 0.01, ****p < 0.0001. (FIG. 1I) Upregulation of MHC-I by UA. (FIG. 1J) Experimental setup of oral UA administration in mice with established APTK-s.c. tumors. […] (FIG. 1L) End point tumor weight, (FIG. 1M) CD8+ T cell infiltration in APTK-s.c. tumors assessed by flow cytometry, normalising total number of CD8^+ T cells to tumor weight (n=7 per group). […]

NALM-6 leukemia cells = assay: Killing of NALM-6 cells by CD19-CAR T cells; assay type: cell-based, human; conditions: 24 h co-culture
[1] = increasing concentrations of UA, 24 h

O=c1oc2cc(O)ccc2c2ccc(O)cc12 [Urolithin A]
MHC-I (antigen presentation) (APTK organoids; 48 h of treatment): marked upregulation of MHC-I
MitoTracker staining (APTK organoids; [1]): loss of MitoTracker staining
formation of lysosomes (lysotracker MFI) (APTK organoids; [1]): dose-dependent formation of lysosomes
CD19 CAR-T cell mediated killing of NALM-6 leukemia cells (NALM-6 leukemia cells): did not have a negative impact

— patent publication US20230277669A1, “USES OF UROLITHINS” (Amazentis SA, priority 2022, published 2023)
